In data set [1] the target is T1, Na(+)/citrate cotransporter (Homo sapiens, UniProt Q86YT5). The data set is described as follows: Inhibition of NaCT (unknown origin) expressed in HEK293 cells assessed as inhibition of [14C]citrate uptake by microbeta plate reader analysis. It counts as cell-based.
The target in data set [2] is T1, Na(+)/citrate cotransporter. The data set is described as follows: Inhibition of NaCT in human hepatocytes assessed as [14C]-citrate uptake after 30 mins by scintillation counting method. It counts as cell-based, Hepatocyte.
A short description of data set [3]: AUC(0 to t) in Wistar Han rat at 5 mg/kg, po by LC-MS/MS analysis. It counts as ADME, organism-based. The conditions noted are these: in vivo.
Data set [4] can be described thus: Half life in Wistar Han rat at 1 mg/kg, iv by LC-MS/MS analysis. Type of data set: ADME, organism-based. The conditions noted are these: in vivo.
The nature of data set [5]: Fraction unbound in Wistar Han rat by equilibrium dialysis method. It counts as ADME.
Data set [6] in a line: Total plasma clearance in Wistar Han rat at 1 mg/kg, iv by LC-MS/MS analysis. Type of data set: ADME, organism-based.
A short description of data set [7]: Volume of distribution at steady state in Wistar Han rat at 1 mg/kg, iv by LC-MS/MS analysis. Type of data set: ADME, organism-based. The conditions noted are these: in vivo, read-out: Vdss.
Data set [8] can be described thus: Renal clearance in Wistar Han rat at 1 mg/kg, iv by LC-MS/MS analysis. Type of data set: ADME, organism-based, Kidney. The conditions noted are these: in vivo.
Data set [9] in a line: Clearance in human hepatocytes assessed per 10^6 cells. Type of data set: ADME, cell-based, Hepatocyte. The conditions noted are these: read-out: CLH.
For data set [10], the target named is T2, Solute carrier family 13 member 2 (Homo sapiens, UniProt Q13183).
T2 sequence (Q13183 whole entry): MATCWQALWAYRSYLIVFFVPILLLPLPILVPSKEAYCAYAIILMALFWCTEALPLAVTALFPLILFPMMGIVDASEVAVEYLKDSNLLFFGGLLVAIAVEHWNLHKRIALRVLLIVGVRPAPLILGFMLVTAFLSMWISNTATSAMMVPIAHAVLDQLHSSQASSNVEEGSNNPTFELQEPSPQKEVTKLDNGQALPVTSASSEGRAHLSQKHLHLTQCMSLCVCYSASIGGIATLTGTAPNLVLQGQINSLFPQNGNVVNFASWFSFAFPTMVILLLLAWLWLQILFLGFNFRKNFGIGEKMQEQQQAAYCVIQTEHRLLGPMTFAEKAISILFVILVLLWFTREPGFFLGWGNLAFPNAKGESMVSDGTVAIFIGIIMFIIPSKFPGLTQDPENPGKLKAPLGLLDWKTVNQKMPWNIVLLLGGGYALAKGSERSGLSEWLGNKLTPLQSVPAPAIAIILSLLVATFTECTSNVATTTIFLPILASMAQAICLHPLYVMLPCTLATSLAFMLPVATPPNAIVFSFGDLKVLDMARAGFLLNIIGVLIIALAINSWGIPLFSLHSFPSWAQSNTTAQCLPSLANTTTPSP
The data set is described as follows: Inhibition of NaDC1 (unknown origin) expressed in HEK293 cells assessed as inhibition of [14C]citrate uptake by microbeta plate reader analysis. Type of data set: cell-based. The conditions noted are these: read-out: IC50.

Data set [11] can be described thus: Passive permeability in MDCK cells. Type of data set: ADME, cell-based, Canis lupus familiaris. The conditions noted are these: dog.

Where only a bound is given, the exact number is not on record here.

T1 sequence (Q86YT5 whole entry): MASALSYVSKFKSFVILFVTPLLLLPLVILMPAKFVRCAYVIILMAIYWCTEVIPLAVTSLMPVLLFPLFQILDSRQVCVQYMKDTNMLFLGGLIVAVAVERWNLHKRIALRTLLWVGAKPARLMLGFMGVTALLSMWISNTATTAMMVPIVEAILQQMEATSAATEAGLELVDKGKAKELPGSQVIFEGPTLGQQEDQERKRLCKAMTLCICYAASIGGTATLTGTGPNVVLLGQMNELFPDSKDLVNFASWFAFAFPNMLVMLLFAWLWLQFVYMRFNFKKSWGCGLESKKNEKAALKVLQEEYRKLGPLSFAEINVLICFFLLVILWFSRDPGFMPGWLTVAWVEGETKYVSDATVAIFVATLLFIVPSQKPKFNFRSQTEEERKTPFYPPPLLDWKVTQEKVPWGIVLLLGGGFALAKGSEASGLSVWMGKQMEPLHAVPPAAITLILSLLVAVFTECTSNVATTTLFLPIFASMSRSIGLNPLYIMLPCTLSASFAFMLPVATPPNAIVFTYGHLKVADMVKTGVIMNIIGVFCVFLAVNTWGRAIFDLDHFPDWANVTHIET

As for `CC(C)Oc1ncccc1CCC(O)(CC(=O)O)C(=O)O` (racemic), the IC50 in data set [1] (read-out: IC50) was 330 nM.

For the compound `CCOc1ncccc1CC[C@](O)(CC(=O)O)C(=O)O`, the IC50 in data set [1] (read-out: IC50) was > 25000 nM; in [2] it was > 30000 nM.

As a reminder, the AUC(0-t) is exposure summed from dosing to a finite time, without extrapolation to infinity. What is called half-life is the time needed for the level to fall by half in the phase considered. Read a high half-life as slow decline. For orientation: fraction unbound means the share of the substance not bound to proteins or other matrix. A low value points to extensive binding. For orientation: clearance means the volume of plasma or blood freed of the substance per unit of time. High values mean a high capacity for elimination, low ones a low capacity for elimination. Consider `CC(C)(C)c1ccc(CCC(O)(CC(=O)O)C(=O)O)cc1` (racemic), for which the AUC(0-t) in [3] was 1850 ng·h/mL. Also, the half-life in [4] is 72 min. Besides, the fraction unbound in data set [5] is 0.073. This compound registered a clearance in [6] of 8.5 mL/min/kg. Besides, the Vd in data set [7] amounted to 0.45 L/kg. This compound registered a CL renal in data set [8] of 1.9 mL/min/kg.

As for `COc1ncccc1CCC(O)(CC(=O)O)C(=O)O` (racemic), the IC50 in data set [1] (read-out: IC50) is 3370 nM.

As to `COc1ccc(C)cc1CCC(O)(CC(=O)O)C(=O)O` (racemic), the IC50 in data set [1] (read-out: IC50) was 1650 nM.

Usually Papp stands for the rate of passage across a membrane or cell layer, normalised by area and donor concentration. A higher Papp goes with ready permeation. Compound `CC(C)(C)c1ccc(CC[C@@](O)(CC(=O)O)C(=O)O)cc1` showed an exposure AUC(0-t) in data set [3] of 2570 ng·h/mL. For the same compound, in [4], the half-life was 60 min. In addition, the hepatocyte CLint in data set [9] was < 6 µL/min/1e6 cells. In addition, the IC50 in data set [10] was > 100 µM. The compound further displayed a fraction unbound in data set [5] of 0.054. The compound further displayed a clearance in data set [6] of 4.5 mL/min/kg. In data set [11], this compound yielded a Papp of 1 ×10⁻⁶ cm/s. Besides, the Vd in data set [7] is 0.24 L/kg. The CL renal in data set [8] amounted to 0.5 mL/min/kg.

For `CCOc1ncc(C)cc1CCC(O)(CC(=O)O)C(=O)O` (racemic), the IC50 in data set [1] (read-out: IC50) was found to be 190 nM.

Consider `CCOc1ncccc1CC[C@@](O)(CC(=O)O)C(=O)O`, for which the exposure AUC(0-t) in data set [3] worked out at 2650 ng·h/mL. The compound also had a half-life in data set [4] of 54 min. Moreover, the fraction unbound in [5] was found to be 0.086. Moreover, the IC50 in [1] (read-out: IC50) was determined as 110 nM; in data set [2], 330 nM. Besides, in [6], the clearance came out at 6.7 mL/min/kg. Also, in data set [7], the Vd is 0.13 L/kg. The compound further returned a CL renal in [8] of 1.8 mL/min/kg.

`COc1ncc(C)cc1CC[C@](O)(CC(=O)O)C(=O)O`: the area under the curve AUC(0-t) in [3] amounted to 499 ng·h/mL. This compound also showed a half-life in data set [4] of 60 min. The same compound yielded a free fraction (fraction unbound) in [5] of 0.058. Besides, the IC50 in [1] (read-out: IC50) is > 18000 nM. This compound also displayed a clearance in data set [6] of 9.9 mL/min/kg. Besides, in data set [7], the Vd was 0.2 L/kg. Besides, in [8], the CL renal came to 2.8 mL/min/kg.

`O=C(O)CC(O)(CCc1ccccc1)C(=O)O` (racemic): in data set [1] (read-out: IC50), the IC50 is > 17000 nM.

For `COc1ncc(C)cc1CCC(O)(CC(=O)O)C(=O)O` (racemic), the values for the IC50 in data set [1] (read-out: IC50) and in data set [1] (read-out: pIC50 (converted)) were 650 nM and 316 nM, respectively.

Turning to `CCOc1ncccc1CCC(O)(CC(=O)O)C(=O)O` (racemic), the IC50 in data set [1] (read-out: IC50) turned out to be 110 nM.

These data come from ChEMBL document CHEMBL3769388, “Optimization of a Dicarboxylic Series for in Vivo Inhibition of Citrate Transport by the Solute Carrier 13 (SLC13) Family” (J Med Chem, 2016).
